This note sets out measurements from patent publication US20240218022A1, “ANTI-VISTA MACROCYCLIC PEPTIDES AND COMPOSITIONS” (BRISTOL-MYERS SQUIBB COMPANY, priority 2022, published 2024).

The target of the test is T1, mouse VISTA (mVISTA) (Mus musculus, UniProt Q9D659).
T1 construct: expressed in transfected cells; host or cells: Human embryonic kidney 293T cells
T1 sequence (Q9D659 33-308): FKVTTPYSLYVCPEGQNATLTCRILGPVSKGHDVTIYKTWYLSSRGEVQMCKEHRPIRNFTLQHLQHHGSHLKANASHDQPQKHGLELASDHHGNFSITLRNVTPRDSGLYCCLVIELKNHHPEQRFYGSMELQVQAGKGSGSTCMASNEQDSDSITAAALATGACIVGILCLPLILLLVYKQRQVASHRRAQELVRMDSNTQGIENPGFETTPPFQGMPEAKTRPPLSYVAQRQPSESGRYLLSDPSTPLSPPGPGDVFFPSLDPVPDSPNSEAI
The test can be described thus: Cell-Based Binding High-Content Assay For mVISTA (HC CBA mVISTA). In short, it runs like this:
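293T cells expressing mouse VISTA, with compounds added either after seeding ("no wash") or before seeding and then washed out after 1 h. Biotinylated peptide 2 nM for 30 min at room temperature, then detection with Alexa 647–streptavidin. After fixation with Hoechst stain, plates were high-content imaged; IC50 from four-parameter logistic fit.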

Where [1] appears, read: 293T cells expressing mouse VISTA, competition with biotinylated peptide (2 nM), read-out: HC CBA mVISTA IC50.

Where two headings read alike, the source gives them in different places. Positions of bridges follow the written chain, without caps; N, C: chain ends. Non-standard residues stand in square brackets, D forms with d. Residues, ends and D or L forms follow the SMILES beside them. *: point of attachment. 2Nal = N[C@@H](Cc1ccc2ccccc2c1)C(=O)O; Tic = O=C(O)[C@@H]1Cc2ccccc2CN1; Cit = NC(=O)NCCC[C@H](N)C(=O)O; Ahp(2) = CCCCC[C@H](N)C(=O)O; NMeNle = CCCC[C@H](NC)C(=O)O; NHexGly = CCCCCCNCC(=O)O; Nle = CCCC[C@H](N)C(=O)O; Orn = NCCC[C@H](N)C(=O)O; Allyl = C=CC*

What is called IC50 is the concentration that inhibits the measured activity by half. Consider `CCCCCCN1CC(=O)N[C@@H](Cc2ccc(O)cc2)C(=O)N[C@@H](C(C)C)C(=O)NCC(=O)N[C@@H](CCCNC(=N)N)C(=O)N[C@@H](CC(C)C)C(=O)N[C@@H](CCCCC)C(=O)N2CCC[C@H]2C(=O)N[C@@H](C(C)C)C(=O)N[C@@H](CC(=O)O)C(=O)N[C@H](C(=O)N[C@@H](CO)C(=O)N[C@@H](CCCN)C(=O)N[C@@H](CC(N)=O)C(=O)O)CSCC(=O)N[C@@H](Cc2ccc3ccccc3c2)C(=O)N[C@@H](Cc2ccc(O)cc2)C(=O)N[C@@H](CC(=O)O)C1=O` [Example 1159] ({CH2CO}-[2Nal]YD[NHexGly]YVGRL[Ahp(2)]PVDCS[Orn]N-OH; thioether N-14), for which the IC50 under setting [1] came out at 17.2 nM.
For `CCCCCCN1CC(=O)N[C@@H](Cc2ccc(O)cc2)C(=O)N[C@@H](C(C)C)C(=O)NCC(=O)N[C@@H](CCCNC(=N)N)C(=O)N[C@@H](CC(C)C)C(=O)N[C@@H](CCCCC)C(=O)N2CCC[C@H]2C(=O)N[C@@H](C(C)C)C(=O)N[C@@H](CC(=O)O)C(=O)N[C@H](C(=O)NCCOCCOCC(=O)N[C@@H](CC(=O)O)C(=O)NCCOCCOCC(=O)NCCCCCCCCCCC(=O)O)CSCC(=O)N[C@@H](Cc2ccc3ccccc3c2)C(=O)N[C@@H](Cc2ccc(O)cc2)C(=O)N[C@@H](CC(=O)O)C1=O` (stereo in doubt) [compound 2287], the IC50 (cell-based binding high-content assay, read-out: HC CBA miPrISTA IC50) stood at 21.6 nM.
For the compound `CCCCCCN1CC(=O)N[C@@H](Cc2ccc(O)cc2)C(=O)N[C@@H](CCCC)C(=O)N[C@@H](CC(N)=O)C(=O)N[C@@H](CCCNC(N)=O)C(=O)N2Cc3ccccc3C[C@H]2C(=O)N[C@@H](CCCCC)C(=O)N2CCC[C@H]2C(=O)N[C@@H](C(C)C)C(=O)N[C@@H](CC(=O)O)C(=O)N[C@H](C(=O)NCC(N)=O)CSCC(=O)N[C@@H](Cc2ccccc2)C(=O)N[C@@H](Cc2c[nH]c3ccccc23)C(=O)N[C@@H](CC(=O)O)C1=O` [Example 1412] ({CH2CO}-FWD[NHexGly]Y[Nle]N[Cit][Tic][Ahp(2)]PVDCG-NH2; thioether N-14), the IC50 (read-out: HC CBA mVISTA IC50) is 13.1 nM.
For the compound `C=CCOc1ccc(C[C@@H]2NC(=O)CSC[C@@H](C(=O)NCC(N)=O)NC(=O)[C@H](CC(=O)O)NC(=O)[C@H](C(C)C)NC(=O)[C@@H]3CCCN3C(=O)[C@H](CCCCC)NC(=O)[C@H](CC(C)C)NC(=O)[C@H](CCCNC(=N)N)NC(=O)CNC(=O)[C@H](C(C)C)NC(=O)[C@H](Cc3ccc(O)cc3)NC(=O)CN(CCCCCC)C(=O)[C@H](CC(=O)O)NC(=O)[C@H](Cc3ccc(O)cc3)NC2=O)cc1` [compound 1475] ({CH2CO}-Y(Allyl)YD[NHexGly]YVGRL[Ahp(2)]PVDCG-NH2; thioether N-14), where the note is “the 20th table, scaffold drawing 23, read-out: HC CBA mVISTA IC50”, the IC50 was 10.7 nM.
`CCCCCCN1CC(=O)N[C@@H](Cc2ccc(O)cc2)C(=O)N[C@@H](CCCC)C(=O)N[C@@H](CC(N)=O)C(=O)N[C@@H](CCCNC(=N)N)C(=O)N[C@@H](CC(C)C)C(=O)N[C@@H](CCCCC)C(=O)N2CCC[C@H]2C(=O)N[C@@H](C(C)C)C(=O)N[C@@H](CO)C(=O)N[C@H](C(=O)NCC(N)=O)CSCC(=O)N[C@@H](Cc2ccccc2)C(=O)N[C@@H](Cc2ccc(O)cc2)C(=O)N[C@@H](CC(=O)O)C1=O` [Example 1033] ({CH2CO}-FYD[NHexGly]Y[Nle]NRL[Ahp(2)]PVSCG-NH2; thioether N-14): under setting [1], the IC50 stood at 16.7 nM.
For the compound `CCCCCCN1CC(=O)N[C@@H](Cc2ccc(O)cc2)C(=O)N[C@@H](CCCCC)C(=O)N[C@@H](CC(N)=O)C(=O)N[C@@H](CCCNC(=N)N)C(=O)N(C)[C@@H](CCCC)C(=O)N[C@@H](CCCCC)C(=O)N2CCC[C@H]2C(=O)N[C@@H](C(C)C)C(=O)N[C@@H](CO)C(=O)N[C@H](C(=O)NCC(=O)O)CSCC(=O)N[C@@H](Cc2ccccc2)C(=O)N[C@@H](Cc2c[nH]c3ccccc23)C(=O)N[C@@H](CC(=O)O)C1=O` [Example 1384] ({CH2CO}-FWD[NHexGly]Y[Ahp(2)]NR[NMeNle][Ahp(2)]PVSCG-OH; thioether N-14), the IC50 (read-out: HC CBA mVISTA IC50) was determined as 10.9 nM.
